# Assay results from patent US20050137121A1, “Inhibition of invasive remodelling” (priority 1996, published 2005).
# Values joined by “and” are separate entries in the source; they are usually repeats but may differ in a detail not shown here. Identical values can stand only once. Like-named read-outs stand apart in the source and are kept apart here. Marks after values point to notes of the source that are not given here.
# Legend:
# mouse uPA = experiment: Mouse specific uPA ELISA of xenograft tumour homogenates; format: in vivo; conditions: versus tumours from mock-treated animals, 125 mg/kg BB-94 daily
# From the text: Tumours from untreated control mice and from mice receiving BB94 were homogenized and assayed for mouse uPA content using a mouse specific uPA ELISA.
# plg^+/+ mice [1] = experiment: Wound healing, 20 mm full thickness skin incision; format: in vivo, mouse; conditions: for time after which all wounds were healed: aprotinin 13,000 KIU and/or tranexamic acid 10 mg per day in three i.p. injections, untreated 17 days
# From the text: (§1) Four groups of mice were set up, consisting of 12 plg^−/− mice (group 1), another 12 plg^−/− mice (group 2), 12 plg^+/+ mice (group 3) and another 12 plg^+/+ mice (group 4). All mice were then wounded with a standardised 20 mm long, full thickness skin incision on the back.
# (§2) Each day after wounding the length of the open wounds was carefully measured and recorded. The time taken for each skin wound to completely close was also noted.
# (§3) The time taken for each skin wound to completely close was also noted.
# as §3, §3
# plg^−/− mice [2] = experiment: Wound healing, 20 mm full thickness skin incision; format: in vivo, mouse; conditions: Galardin 2.5 mg i.p. once daily
# From the text: as §1, with “The methods used followed those described by Rømer et al, 1996. Four” for “Four”
# as §2
# Plg-deficient mice = experiment: Keratinocyte migration distance in skin wounds (morphometry); format: in vivo, mouse; conditions: 100 mg/kg daily for 7 days after skin wounding
# Experimental: (§4) Keratinocyte migration. […] 18-20 sections of wound tissue from each group of mice were then analyzed microscopically, and the keratinocyte migration distance along the base of the epidermal outgrowth from the wound edge to the tip of the wedge (see Rømer et al., FIG. 2) was measured blindly by computer-assisted morphometry.
# wild-type mice = experiment: as above; format: in vivo, mouse; conditions: 100 mg/kg daily for 7 days after skin wounding
# Experimental: as §4
# [3] = system: gelatinase B, collagenase-3, stromelysin-1, gelatinase A mRNA; experiment: MMP mRNA expression in wound tissue by in situ hybridization; format: in vivo, mouse; conditions: wild-type and Plg-deficient mice, 100 mg/kg daily, versus mock treated
# Experimental: In parallel experiments, the mice were sacrificed and tissue sections prepared from the wound site. The tissue sections were analyzed for expression of various metalloproteases by in situ hybridisation and for matrix content by staining.
# In situ hybridization. […] The mouse macrophage elastase expression system was investigated with a single probe, while the expression of all other metalloproteases were investigated with two different non-overlapping probes, which in all cases gave identical results.
# plg^−/− mice [4] = system: plg^−/− mice
# From the text: In the evening, female plg^−/− mice (8-10 weeks old) were placed in cages together with male plg^−/− mice of proven potency.
# plg^+/+ mice [5] = experiment: Post-lactational mammary gland involution (gland weight); format: in vivo, mouse
# From the text: (§5) After mice had given birth, the litter was taken away from the mother and adjusted to eight pups, adding pups from other mothers if necessary in order to provide a constant feeding load on each mother. Lactation and feeding with the eight pups were allowed to proceed for 7-8 days, at which time the litter was removed (day 1).
# plg^−/− mice [6] = experiment: as above; format: in vivo, mouse
# From the text: as §5
# plg^+/+ mice [7] = experiment: Post-partum uterine involution (uterus weight); format: in vivo, mouse
# From the text: (§6) Treatment was continued to 4 days post-partum and on the fifth day post-partum the mice were sacrificed and the uteri removed, dissected free of adhering fatty tissue, and blotted dry before weighing.
# plg^−/− mice [8] = experiment: Post-partum uterine involution (uterus weight); format: in vivo, mouse
# From the text: as §6
# Lewis lung carcinoma = system: Lewis lung carcinoma
# Experimental: Four groups of 17 mice were injected subcutaneously with Lewis lung carcinoma tissue mince (approx. 1.0×10^6 cells). The first group (CON) were treated only with buffered vehicle. The second group (TA/AP) was treated i.p. three times each day with a mixture of tranexamic acid (TA) and aprotinin (AP), so that the total dosage was 10 mg TA and 13,000 KIU AP per day per mouse. […] The tumour growth in the mice was monitored every 2-3 days by careful measurement with callipers of the longest and shortest axes of the palpable tumours, and the calculated volume was plotted as a function of time. The growth rate of the tumours was followed until death and the survival of mice in the four groups was analyzed by a Kaplan-Meier plot. Histological sections from the primary murine Lewis Lung carcinoma were analyzed by in situ hybridization for the expression of stromelysin-1 and gelatinase-B.
# plg^+/+ mice [9] = conditions: 2.5 mg i.p. daily, 5 mice
# plg^+/+ mice [10] = conditions: Galardin 2.5 mg, aprotinin 13,000 KIU and tranexamic acid 10 mg per day i.p.
# From the text: In the evening, wild-type (plg^+/+) female mice were placed together with plg^+/+ male mice of proven potency. Bach morning the females were closely examined for the characteristic vaginal “plugs” formed after mating, and the mated females were removed and allocated to four groups.
# [11] = molecular target: angiotensin converting enzyme (ACE) (Homo sapiens, UniProt P12821); conditions: very weak inhibition; a million-fold higher than for the metalloproteases; cited from earlier work
# Chain of angiotensin converting enzyme (ACE) (P12821 30-1306, species assumed): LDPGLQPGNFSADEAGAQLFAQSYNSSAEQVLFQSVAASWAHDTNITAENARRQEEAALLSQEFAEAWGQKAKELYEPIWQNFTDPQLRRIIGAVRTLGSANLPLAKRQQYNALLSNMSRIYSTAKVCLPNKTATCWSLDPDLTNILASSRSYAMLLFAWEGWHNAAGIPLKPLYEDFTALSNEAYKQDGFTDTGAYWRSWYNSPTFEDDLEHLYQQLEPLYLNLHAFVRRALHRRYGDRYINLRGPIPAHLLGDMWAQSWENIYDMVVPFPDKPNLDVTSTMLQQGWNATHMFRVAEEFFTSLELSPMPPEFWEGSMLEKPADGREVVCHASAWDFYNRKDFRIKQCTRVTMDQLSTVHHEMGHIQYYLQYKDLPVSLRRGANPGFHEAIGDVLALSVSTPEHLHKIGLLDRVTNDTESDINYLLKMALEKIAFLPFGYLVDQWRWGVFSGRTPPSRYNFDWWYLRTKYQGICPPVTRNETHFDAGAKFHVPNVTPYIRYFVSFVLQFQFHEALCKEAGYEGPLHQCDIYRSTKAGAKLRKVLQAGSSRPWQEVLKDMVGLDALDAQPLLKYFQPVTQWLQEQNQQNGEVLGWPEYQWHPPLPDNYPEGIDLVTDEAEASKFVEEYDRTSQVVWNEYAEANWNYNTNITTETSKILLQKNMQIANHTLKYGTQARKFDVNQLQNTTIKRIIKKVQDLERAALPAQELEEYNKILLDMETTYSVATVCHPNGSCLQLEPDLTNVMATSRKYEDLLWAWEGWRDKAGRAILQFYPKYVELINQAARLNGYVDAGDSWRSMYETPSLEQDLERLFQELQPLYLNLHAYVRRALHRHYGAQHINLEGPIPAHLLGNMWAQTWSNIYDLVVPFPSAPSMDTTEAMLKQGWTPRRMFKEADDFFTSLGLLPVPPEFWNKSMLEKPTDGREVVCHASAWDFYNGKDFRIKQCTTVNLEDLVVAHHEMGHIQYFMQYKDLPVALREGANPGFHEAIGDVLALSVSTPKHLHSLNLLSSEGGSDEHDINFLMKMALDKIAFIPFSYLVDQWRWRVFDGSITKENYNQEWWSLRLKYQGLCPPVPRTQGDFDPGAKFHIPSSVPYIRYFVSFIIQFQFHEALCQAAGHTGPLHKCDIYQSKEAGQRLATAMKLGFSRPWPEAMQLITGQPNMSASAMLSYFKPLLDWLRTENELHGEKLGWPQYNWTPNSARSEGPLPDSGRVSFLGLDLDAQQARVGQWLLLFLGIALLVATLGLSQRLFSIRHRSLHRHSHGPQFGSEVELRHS
# plasmin = plasmin (Homo sapiens, UniProt P00747); conditions: very weak inhibition; a million-fold higher than for the metalloproteases; cited from earlier work
# Chain of plasmin (P00747 581-810 limits assumed, species assumed): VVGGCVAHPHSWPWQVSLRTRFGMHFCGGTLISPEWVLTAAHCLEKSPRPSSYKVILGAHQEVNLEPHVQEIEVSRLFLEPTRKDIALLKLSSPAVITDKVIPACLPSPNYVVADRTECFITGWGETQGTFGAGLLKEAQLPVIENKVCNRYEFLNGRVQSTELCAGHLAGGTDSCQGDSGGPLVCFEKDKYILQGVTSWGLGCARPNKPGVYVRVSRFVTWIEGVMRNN
# Chain of plasmin (P00747 97-580 partner limits assumed, species assumed): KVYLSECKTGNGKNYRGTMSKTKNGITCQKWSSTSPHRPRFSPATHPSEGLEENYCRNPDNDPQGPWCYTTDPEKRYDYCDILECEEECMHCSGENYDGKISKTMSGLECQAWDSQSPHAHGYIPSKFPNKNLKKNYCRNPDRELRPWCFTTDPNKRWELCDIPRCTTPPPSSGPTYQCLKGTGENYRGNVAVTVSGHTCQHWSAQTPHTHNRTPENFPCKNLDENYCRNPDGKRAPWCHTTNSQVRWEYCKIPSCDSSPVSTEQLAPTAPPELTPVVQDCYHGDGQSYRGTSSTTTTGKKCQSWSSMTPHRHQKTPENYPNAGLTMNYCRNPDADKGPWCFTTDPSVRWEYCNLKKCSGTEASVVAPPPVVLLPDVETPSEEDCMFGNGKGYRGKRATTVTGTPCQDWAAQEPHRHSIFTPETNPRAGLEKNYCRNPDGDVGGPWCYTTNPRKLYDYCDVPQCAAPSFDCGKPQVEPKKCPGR
# stromelysin-1 (MMP-3) = stromelysin-1 (MMP-3) (Homo sapiens, UniProt P08254); conditions: cited from earlier work
# Chain of stromelysin-1 (MMP-3) (P08254 100-477, species assumed): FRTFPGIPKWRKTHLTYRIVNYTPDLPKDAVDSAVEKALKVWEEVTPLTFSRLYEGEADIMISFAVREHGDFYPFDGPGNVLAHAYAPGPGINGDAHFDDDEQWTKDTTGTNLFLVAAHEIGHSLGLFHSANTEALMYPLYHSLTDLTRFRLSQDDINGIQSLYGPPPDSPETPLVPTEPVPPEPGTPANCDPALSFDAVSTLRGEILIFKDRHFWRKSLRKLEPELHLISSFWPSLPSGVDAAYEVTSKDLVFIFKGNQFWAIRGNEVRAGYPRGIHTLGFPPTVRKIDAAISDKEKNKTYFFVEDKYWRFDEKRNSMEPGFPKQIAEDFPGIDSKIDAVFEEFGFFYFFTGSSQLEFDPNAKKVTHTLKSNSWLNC
# [12] = Biological half-life of aprotinin in blood plasma; format: in vivo, mouse; conditions: single i.p. injection of 2.1 mg
# Experimental: Fifteen mice (weighing approx. 25 g each) were injected i.p. with 0.75 ml of aprotinin solution (20,000 KIU/ml; approx. 2.1 mg) and at time intervals of 0.5, 1.5, 3.0, 6.0 and 24 h thereafter three mice were sacrificed and blood collected by cardiac puncture into citrate anti-coagulant tubes. Each plasma sample was ultrafiltrated through a 20,000 MW cut-off membrane, and the aprotinin level in the ultrafiltrate was determined by inhibition of the calorimetric activity of a standard trypsin solution.
# [13] = 2.5 mg/mouse i.p. daily from weaning day 2, weighed day 5, single animals
# [14] = 2.5 mg/mouse i.p. daily, weaning day 5
molecule,measurement,setting,value
"CNC(=O)[C@H](Cc1ccccc1)NC(=O)[C@H](CC(C)C)[C@H](CSc1cccs1)C(=O)NO [BB-94, Batimastat]",upregulation of mouse uPA in the tumours,mouse uPA,~2 fold
CNC(=O)[C@H](Cc1c[nH]c2ccccc12)NC(=O)[C@@H](CC(=O)NO)CC(C)C [Galardin™],wounds healed after 38 days,plg^+/+ mice [1]; Galardin 2.5 mg i.p. once daily,22%
same,healed wounds 38 days after wounding,plg^−/− mice [2],none
same,healed wounds after 80 days,plg^−/− mice [2],none
same,keratinocyte migration distance (mean value±standard deviation),Plg-deficient mice,208±60 arbitrary units
same,keratinocyte migration distance (mean value±standard deviation),wild-type mice,268±80 arbitrary units
same,expression of gelatinase A and stromelysin-3 mRNA in granulation tissue fibroblasts,[3],upregulated
same,"expression of gelatinase B, collagenase-3 and stromelysin-1 mRNA in leading-edge keratinocytes",[3],dramatically upregulated
same,% pregnant,plg^−/− mice [4]; 2.5 mg i.p. daily day 3.5 to 18.5,25%
same,Pregnancies,"plg^−/− mice [4]; 2.5 mg i.p. daily day 3.5 to 18.5, 4 mice",1*
same,% pregnant,"plg^−/− mice [4]; 2.5 mg i.p. daily day 3.5 to 18.5, listed as G",25* %
same,Gland 4 Weight,plg^+/+ mice [5]; [13],188 mg and 198 mg and 146 mg
same,Mean Weight (gland 4),plg^+/+ mice [5]; [14],177 mg
same,% Control (gland weight),plg^+/+ mice [5]; control = plg^+/+ untreated,162%
same,Gland 4 Weight,plg^−/− mice [6]; [13],262 mg and 342 mg and 251 mg
same,Mean Weight (gland 4),plg^−/− mice [6]; [14],285 mg
same,% Control (gland weight),plg^−/− mice [6]; control = plg^+/+ untreated,262%
same,Mean Weight ± SD (uterus),"plg^+/+ mice [7]; 90 mg/kg i.p. daily, fifth day post-partum",221 ± 65.3 mg
same,Weight (uterus),"plg^+/+ mice [7]; 90 mg/kg i.p. daily, fifth day post-partum, single animals, 90 mg/kg",288 mg and 285 mg and 135 mg and 206 mg and 192 mg
same,change in 5 day postpartum uterine weight versus control,"plg^+/+ mice [7]; 90 mg/kg, p=0.158",did not produce a significant increase
same,change in 5 day postpartum uterine weight versus control,"plg^−/− mice [8]; Plg^−/− mice, 90 mg/kg, p=0.012",significant increase
same,Mean Weight ± SD (uterus),"plg^−/− mice [8]; plg^−/− mice, 90 mg/kg i.p. daily, fifth day post-partum",337 ± 70.9 mg
same,Weight (uterus),"plg^−/− mice [8]; plg^−/− mice, 90 mg/kg i.p. daily, fifth day post-partum, single animals, 90 mg/kg",311 mg and 408 mg and 236 mg and 328 mg and 401 mg
same,survival of the tumour-bearing mice,"Lewis lung carcinoma; 10 mg TA and 13,000 KIU AP per day i.p., 1.8 mg Galardin per day per mouse",considerable prolongation
same,long-term survival (mice per group of 17),Lewis lung carcinoma; treatment stopped day 50,no long-term survivors
same,Pregnancies,plg^+/+ mice [9],3
same,production of offspring,plg^+/+ mice [10],unaffected
same,Ki,[11],in the millimolar range
same,Ki,plasmin,in the millimolar range
same,Ki,stromelysin-1 (MMP-3),30 nM
aprotinin,time after which all wounds were healed,plg^+/+ mice [1],24 days
same,half life,[12]; mouse plasma,approx. 3 h
same,plasma level,[12]; mouse,approx. 25 μg/ml
NC[C@H]1CC[C@H](C(=O)O)CC1 [tranexamic acid],time after which all wounds were healed,plg^+/+ mice [1],17 days
